Assay results from article PMC7699524, “Assessing the Intestinal Permeability and Anti-Inflammatory Potential of Sesquiterpene Lactones from Chicory” (Nutrients, 2020).

Tests used:
Caco-2 cells = experiment: Permeability across Caco-2 monolayer (apical concentration by LC-MS); conditions: Caco-2 monolayer
Procedure: For intestinal permeability assessments of pure SLs, Caco-2 cells were seeded in 12 mm Transwell® inserts (polyester membrane, 0.4 μm pore size, Corning Costar Corp., NY, USA) at a density of 1.0 × 10^5 cell/cm^2. Cells were allowed to grow and differentiate to a confluent monolayer for 21 days postseeding with medium change three times per week. This mimics the apical and basolateral sides of the intestinal mucosa. Before the permeability assay, cells were washed with Hank’s balanced salt solution (HBSS) (Gibco, Life Technologies, Paisley, UK), and pure SLs in HBSS were added to the apical side for 4 h at the noncytotoxic concentration of 10 μM, while the basolateral well was replaced by HBSS. The fluorescent marker fluorescein (2.7 µM) was used as control, having been submitted to the same protocol as the SLs. Cells were submitted to an orbital shaking of 125 rpm (Ohaus, Shanghai, China), and samples from the basolateral side were collected after 15 min, 30 min, and then every hour until the end of the assay, and each time the retrieved volume was replaced by fresh HBSS to maintain sink conditions. After the 4 h assay, both apical and basolateral contents were collected, the cells were washed with PBS followed by culture medium, and culture medium was added to both compartments for 24 h to assess monolayer recovery. All samples were stored at −80 °C until LC-MS analysis.
Transepithelial electrical resistance (TEER) of all monolayers was monitored before and during experiments, and 24 h after the assay, to ensure their integrity using an EVOM™ voltmeter (WPI, Berlin, Germany). Before each experiment, TEER was measured and only monolayers with a TEER value higher than 500 Ω cm^2 were used. Experiments were done in triplicate.
Ultra High Performance Liquid Chromatography (UHPLC) separations were performed with a Dionex U3000 UHPLC coupled with a U3000 Photo Diode Array (PDA) and an LTQ-Orbitrap XL Mass Spectrometry (MS) system (Thermo-Fisher Ltd., Hemel Hempstead, UK). The MS and PDA systems were tuned and calibrated according to the manufacturers recommended procedures. The UHPLC was operated under Xcalibur and Chromeleon software (Thermo-Fisher Ltd. UK). A flow rate of 300 µL/min was applied, the column and guard (Synergi C18 Hydro-RP 80 Ä, 150 × 2.0 mm, 4 µm particle size; Phenomenex Ltd. U.K.) were maintained at a temperature of 30 °C. The solvent system compositions were, A: HPLC grade water (J.T. Baker, Scientific Chemical Supplies Ltd. UK), and solvent B: HPLC grade acetonitrile (J.T. Baker, Scientific Chemical Supplies Ltd. UK), both acidified with 0.1% MS grade formic acid (Ultima, Fisher Scientific, UK). A sample injection volume of 10 µL was employed in partial-loop mode. The gradient program was as follows: hold 2% B 0–2 min, 2–5% B 2–5 min, 5–45% B 5–25 min, 45–100% B 25–35 min, hold 100% B 35–38 min, 100–2% B 38–39 min, hold 2% B 39–44 min. Autosampler syringe and line washes were performed with 2:8 HPLC grade water: acetonitrile (J.T. Baker, Scientific Chemical Supplies Ltd., UK). The HPLC column eluent was first monitored by the U3000 PDA detector where spectra were collected in wavelength/absorbance mode from 200–600 nm. Additionally, three channel set points were employed, Channel A 210 nm, Channel B 260 nm, Channel C 320 nm. Spectra were collected with a filter bandwidth of 8 nm and wavelength step of 1 nm, the scan rate was 5 Hz.
The UHPLC eluent was next transferred to a Thermo LTQ-Orbitrap XL mass spectrometry system operated under Xcalibur (Thermo-Fisher Ltd. UK). For the first two minutes of analysis the UHPLC eluent was diverted to waste, from two to 39 min the eluent was directed to the MS detector, before being diverted back to waste between 39–44 min. Mass spectra were collected in centroid mode with a primary full scan event (m/z 100–1000) at a mass resolution of 30,000 (FWHM defined at m/z 400) within the Fourier Transform (FT) detector.

calcineurin-Crz1 pathway = experiment: β-Galactosidase CDRE-lacZ yeast reporter assay of Crz1 activation; type: cell-based, S. cerevisiae; conditions: Saccharomyces cerevisiae
Procedure: Cultures at OD600= 0.5 ± 0.05 were diluted to OD600= 0.1 ± 0.01, transferred to 96-well microplate and challenged with the highest nontoxic concentration previously determined for each compound to investigate their putative inhibitory effect towards the calcineurin-responsive zinc finger (Crz1) activation. Measurements of β-galactosidase activity driven by the calcineurin-dependent response element (CDRE) regulated lacZ reporter gene allowed the quantitative assessment of the capacity of each compound to inhibit the activation of Crz1. FK506 (Cayman Chemicals, Ann Arbor, MI, USA) was used as a positive control at a final concentration of 12.5 μM. After 90 min of incubation with the respective compounds at 30 °C under orbital shaking, MnCl2 (Merck, Saint Louis, MO, USA) was added at a final concentration of 3 mM. After 90 min of incubation under the same conditions, OD600 of cultures were recorded, 10 μL of cell suspensions were transferred to a new 96-well plate followed by addition of 20 μL Y-PER cell lysis reagent (ThermoFisher Scientific), and the plates were incubated for 20 min at 37 °C without agitation. 240 μL of LacZ buffer (8.5 g/L Na2HPO4 (ROTH), 5.5 g/L NaH2PO4.H2O (Merck), 0.75 g/L KCl (Panreac), 0.246 g/L MgSO4.7H2O (Merck) containing […] o-nitrophenyl β-D-galactopyranoside (ONPG) (Sigma–Aldrich®—Poole, Dorset, UK) was added to each well, and plates were incubated at 30 °C for 2 h. The OD420 and OD550 were monitored using a Biotek Power Wave XS Microplate Spectrophotometer (Biotek® Instruments, Winooski, VT, USA). The results were expressed as Miller units (MU), applying the following equation, where V = volume of culture assayed in mL; t = reaction time in minutes: Miller unit = 1000 × (OD420 − 1.75 × OD550)/(t × V × OD600)(1)

Crz1-GFP = experiment: Fluorescence microscopy of Crz1-GFP nuclear accumulation; type: cell-based, S. cerevisiae; conditions: 3.6 µM, then 3 mM MnCl2; YAA3 cells; MnCl2 only 55.6%
Procedure: YAA3 cells were treated with 3.6 µM of 11β,13-dihydrolactucin or 12.5 µM of FK506 for 90 min, followed by incubation with or without 3 mM MnCl2 for further 90 min. On the last 10 min of incubation, 10 µg/mL of Hoechst 33,342 (Sigma) nuclear dye were added. Cells were washed and resuspended in 5 µL of 1,4-Diazabicyclo[2.2.2]octane (DABCO, triethylenediamine) DABCO solution (200 mM DABCO in 75% (v/v) glycerol, 25% (v/v) PBS) (Sigma-Aldrich). The preparations were monitored for GFP fluorescence as previously described using a Zeiss Imager Z2 (Zeiss, Germany) fluorescence microscope. Photographs were taken with an Axiocam 506 mono (Zeiss). Three images were taken and analyzed for each sample, each one containing ≈ 600 individual cells. Images were analyzed using Fiji-ImageJ 1.53f (NIH, Bethesda, MD, USA).

[1] = tested on: Crz1 target genes PMR1 and GSC2; experiment: qRT-PCR of Crz1 target genes; type: cell-based, S. cerevisiae; conditions: 3.6 µM, 3 mM MnCl2, qPCR
Procedure: The qRT-PCR analyses were performed as previously described. Briefly, total RNA was extracted using the RNeasy Mini kit (QIAGEN). After cleaning, 4 μg of total RNA was used for reverse-transcription with SuperScript™ II Reverse Transcriptase (Invitrogen). The qRT-PCR was performed in a QuantStudio™ 5 (Applied Biosystems), using SensiFAST™ SYBR Lo-ROX Kit (Bioline) to evaluate expression of the PMR1 (‘5-[…]-3′; 5′-[…]-3′) (GeneID: 852709), and GSC2 (5′-[…]-3′; 5′-[…]-3′) (GeneID: 852920) genes. Both ACT1 (5′-GATCATTGCTCCTCCAGAA-3′; 5′-[…]-3′) and PDA1 (5′-[…]-3′; 5′-[…]-3′) were used as reference genes. The results were expressed as relative mRNA expression levels relative to activation condition (mRNA levels a.u.) of at least three independent biological replicates ± SEM.

Structure (SMILES): CC1=C2C(=O)C=C(CO)C2C2OC(=O)C(C)C2C(O)C1 (stereo not drawn) [11β,13-dihydrolactucin]
- % of Decrease in SL Concentration in the Apical Side (t = 4h) (Caco-2 cells; 10 µM apical, 4 h vs t = 0 h): 8.7%
- SL conjugates with cysteine in the apical side after 4 h (Caco-2 cells; LC-MS): not detected
- Concentration of SL (Apical Side) t = 4 h (Caco-2 cells; SL added at 10 µM apical, after 4 h): 8.3 ± 1.4 µM
- Concentration of SL (Apical Side) t = 0 h (Caco-2 cells; SL added at 10 µM apical, before experiment): 9.1 ± 1.3 µM
- inhibition at 12.5 µM (calcineurin-Crz1 pathway; read-out: Calcineurin-Crz1 Inhibition (%) ± SD, 12.5 µM, MnCl2 3 mM activation, strain YAA5): 43 ± 8%
- IC50 (calcineurin-Crz1 pathway; read-out: IC50 for Crz1 inhibition): 2.35 ± 1.45 µM
- inhibition at 3.6 µM (calcineurin-Crz1 pathway; read-out: Inhibition of Crz1 activation (dose response assay), 3.6 µM, MnCl2 activation): ≤ 54%
- Percentage of cells with nuclear Crz1-GFP (Crz1-GFP): 21%
- GSC2 mRNA expression [1]: downregulated
- PMR1 mRNA expression [1]: downregulated
